Data taken from US11014955B2, “Cyclic peroxides as prodrugs for selective delivery of agents” (THE REGENTS OF THE UNIVERSITY OF CALIFORNIA, priority 2014, dated 2021).
Where “and” joins values, the source holds several entries; their conditions need not be identical. Equal values may be shown once. Where a name gives a salt, the structure may show the parent alone. Read-outs that look alike come from different tables or passages of the source. Values belong to the compound of their own block, whether it stands above or below them.

Columns and labels:
P. falc HB3 = test: Biological activity EC50, P. falc HB3; assay type: cell-based; conditions: Plasmodium falciparum; Target (Cell Line): P. falc HB3
P. falc DD2 = test: Biological activity EC50, P. falc DD2; assay type: cell-based; conditions: Plasmodium falciparum; Target (Cell Line): P. falc DD2
P. falc 3D7 = test: Biological activity EC50, P. falc 3D7; assay type: cell-based; conditions: Plasmodium falciparum; Target (Cell Line): P. falc 3D7
IMR90 = test: Biological activity EC50, IMR90; assay type: cell-based; conditions: Homo sapiens, IMR-90; Target (Cell Line): IMR90
U87MG = test: Biological activity EC50, U87MG; assay type: cell-based; conditions: Homo sapiens, U-87 MG; Target (Cell Line): U87MG
P. falc W2 = test: Biological activity EC50, P. falc W2; assay type: cell-based; conditions: Plasmodium falciparum
HeLa = test: Biological activity EC50, HeLa; assay type: cell-based; conditions: Homo sapiens; Target (Cell Line): HeLa
P. falc D10 = test: Biological activity EC50, P. falc D10; assay type: cell-based, P. falciparum; conditions: Target (Cell Line): P. falc D10
MCF-7 = test: Biological activity EC50, MCF-7; assay type: cell-based; conditions: Homo sapiens, MCF7; Target (Cell Line): MCF-7
PC-3 = test: Biological activity EC50, PC-3; assay type: cell-based; conditions: Homo sapiens; Target (Cell Line): PC-3
MB-MDA-231 = test: Biological activity EC50, MB-MDA-231; assay type: cell-based
P. falc = test: Biological activity EC50, P. falc (strain not given); assay type: cell-based; conditions: Plasmodium falciparum; Target (Cell Line): P. falc
[1] = Target (Cell Line): P. falc W2, read-out: Activity EC50
[2] = Target (Cell Line): MB-MDA-231, read-out: Activity EC50

Compound: CCCCN(CCCC)CCC(OC(=O)OC1CCCC2(C1)OOC1(O2)C2CC3CC(C2)CC1C3)c1cc2c(Cl)cc(Cl)cc2c2cc(C(F)(F)F)ccc12 (stereo not drawn) [Example 8, 3-(dibutylamino)-1-[1,3-dichloro-6-(trifluoromethyl)phenanthren-9-yl]propyl dispiro[adamantane-2,2′-[1,3,5]trioxolane-4′,1″-cyclohexane]-3″-yl carbonate]
EC50 (P. falc HB3): 8 nM | EC50 (P. falc DD2): 15 nM | EC50 (P. falc 3D7): 21 nM

Compound: COc1ccc(/C=C/C(=O)N2CC(CCl)c3c2cc(NC(=O)OC2CCCC4(C2)OOC2(O4)C4CC5CC(C4)CC2C5)c2ccccc32)cc1 (stereo not drawn) [Example 14, dispiro[adamantane-2,2′-[1,3,5]trioxolane-4′,1″-cyclohexane]-3″-yl N-[1-(chloromethyl)-3-[(2E)-3-(4-methoxyphenyl)prop-2-enoyl]-1H,2H,3H-benzo[e]indol-5-yl]carbamate]
EC50 (IMR90): 100 nM | EC50 (U87MG): 40 nM | EC50 (P. falc W2; [1]): 2.8 nM | EC50 (HeLa): 105 nM

Compound: CCCCC(C(=O)COc1c(F)c(F)cc(F)c1F)n1cc(C2(N)CCCCC2)nn1 (stereo not drawn) [Literature Compound A, reference compound]
EC50 (P. falc D10; Plasmodium falciparum): 70 nM

Compound: COc1ccc(/C=C/C(=O)N2CC(CCl)c3c2cc(N)c2ccccc32)cc1 (stereo not drawn) [Literature Compound C, reference compound]
EC50 (IMR90): 3 nM | EC50 (U87MG): 5 nM | EC50 (P. falc W2; read-out: Activity EC50 (nM)): 0.45 nM | EC50 (HeLa): 11 nM

Compound: CCNC(=O)OC1CCCC2(C1)OOC1(O2)C2CC3CC(C2)CC1C3 (stereo not drawn) [Example 5, dispiro[adamantane-2,2′-[1,3,5]trioxolane-4′,1″-cyclohexane]-3″-yl N-ethylcarbamate]
EC50 (P. falc W2; [1]): 5.9 nM

Compound: COc1ccc(-c2cnnn2-c2cc(OC)c(OC)c(OC)c2)cc1NC(=O)OC1CCCC2(C1)OCC1(O2)C2CC3CC(C2)CC1C3 (stereo not drawn) [Example 12, dispiro[adamantane-2,4′-[1,3]dioxolane-2′,1″-cyclohexane]-3″-yl N-{2-methoxy-S-[1-(3,4,5-trimethoxyphenyl)-1H-1,2,3-triazol-5-yl]phenyl}carbamate]
EC50 (MCF-7): > 1000 nM | EC50 (PC-3): > 1000 nM | EC50 (P. falc W2; [1]): > 1000 nM | EC50 (HeLa): > 1000 nM

Compound: O=C(OC1CCCC2(C1)OOC1(O2)C2CC3CC(C2)CC1C3)N1CCCCC1[C@@H](O)c1cc(C(F)(F)F)nc2c(C(F)(F)F)cccc12 (stereo partly drawn) [Example 6, dispiro[adamantane-2,2′-[1,3,5]trioxolane-4′,1″-cyclohexane]-3″-v 2-[(S)-[2,8-bis(trifluoromethyl)quinolin-4-yl](hydroxy)methyl]piperidine-1-carboxylate]
EC50 (P. falc W2; [1]): 17.1 nM

Compound: O=C1CCCC2(C1)OOC1(O2)C2CC3CC(C2)CC1C3 (stereo not drawn) [Cmpd 2b, dispiro[adamantane-2,2′-[1,3,5]trioxolane-4′,1″-cyclohexane]-3″-one]
EC50 (P. falc): 408 nM

Compound: O=C(Nc1cc(Cl)ccc1Cl)O[C@@H]1C[C@H](OC(=O)Nc2cc(Cl)ccc2Cl)CC2(C1)OOC1(O2)C2CC3CC(C2)CC1C3 (relative stereo) [Example 4, (3″R*,5″S*)-5″-{[(2,5-dichlorophenyl)carbamoyl]oxy}dispiro[adamantane-2,2′-[1,3,5]trioxolane-4′,1″-cyclohexane]-3″-yl N-(2,5-dichlorophenyl)carbamate]
EC50 (P. falc): 147 nM

Compound: C=CC1(OC(=O)Nc2cc(Cl)ccc2Cl)CCCC2(C1)OOC1(O2)C2CC3CC(C2)CC1C3 (stereo not drawn) [Example 2, 3″-ethenyldispiro[adamantane-2,2′-[1,3,5]trioxolane-4′,1′-cyclohexane]-3″-yl N-(2,5-dichlorophenyl)carbamate]
EC50 (P. falc): 10.7 nM

Compound: COc1ccc(/C=C/C(=O)N2CC(CCl)c3c2cc(NC(=O)OC2CCCC4(C2)OCC2(O4)C4CC5CC(C4)CC2C5)c2ccccc32)cc1 (stereo not drawn) [Example 15, dispiro[adamantane-2,4′-[1,3]dioxolane-2′,1″-cyclohexane]-3″-yl N-[1-(chloromethyl)-3-[(2E)-3-(4-methoxyphenyl)prop-2-enoyl]-1H,2H,3H-benzo[e]indol-5-yl]carbamate]
EC50 (IMR90): > 1000 nM | EC50 (P. falc W2; [1]): 41 nM | EC50 (HeLa): > 1000 nM

Compound: O=C(Nc1cc(Cl)ccc1Cl)OC1CCCC2(C1)OOC1(O2)C2CC3CC(C2)CC1C3 (stereo not drawn) [Example 1, dispiro[adamantane-2,2′-[1,3,5]trioxolane-4′,1″-cyclohexane]-3″-yl N-(2,5-dichlorophenyl)carbamate]
EC50 (P. falc): 14.3 nM

Compound: COc1ccc(-c2cnnn2-c2cc(OC)c(OC)c(OC)c2)cc1N [Literature Compound B, reference compound]
EC50 (MCF-7): 10 nM | EC50 (PC-3): 9 nM | EC50 (MB-MDA-231; read-out: Activity EC50 (nM)): 10 nM | EC50 (P. falc W2; read-out: Activity EC50 (nM)): > 1000 nM | EC50 (HeLa): 11 nM

Compound: CC(C)(C)[C@H]1C[C@H](OC(=O)Nc2cc(Cl)ccc2Cl)CC2(C1)OOC1(O2)C2CC3CC(C2)CC1C3 (stereo partly drawn) [Example 3, (3″S,5″S)-5″-tert-butyldispiro[adamantane-2,2′-trioxolane-4′,1″-cyclohexane]-3″-yl N-(2,5-dichlorophenyl)carbamate]
EC50 (P. falc): 65.7 nM

Next, values leading:

EC50 (P. falc DD2): 54.2 nM
Compound: CN(C)c1cccc2c(S(=O)(=O)N3CCC4(CC3)OOC3(O4)C4CC5CC(C4)CC3C5)cccc12 (stereo not drawn) [Example 21, 5-({dispiro[adamantane-2,2′-[1,3,5]trioxolane-4′,4″-piperidine]-1″-yl}sulfonyl)-N,N-dimethylnaphthalen-1-amine]

EC50 (MCF-7): 24 nM | EC50 (PC-3): 26 nM | EC50 (MB-MDA-231; [2]): 42 nM | EC50 (P. falc W2; [1]): 34 nM | EC50 (HeLa): 57 nM
Compound: COc1ccc(-c2cnnn2-c2cc(OC)c(OC)c(OC)c2)cc1NC(=O)OC1CCCC2(C1)OOC1(O2)C2CC3CC(C2)CC1C3 (stereo not drawn) [Example 11, dispiro[adamantane-2,2′-[1,3,5]trioxolane-4′,1″-cyclohexane]-3″-yl N-{2-methoxy-5-[1-(3,4,5-trimethoxyphenyl)-1H-1,2,3-triazol-5-yl]phenyl}carbamate]

EC50 (P. falc D10; Plasmodium falciparum): 29 nM | EC50 (P. falc D10): 15.7 nM and 23.3 nM
Compound: CCCCC(C(=O)COc1c(F)c(F)cc(F)c1F)n1cc(C2(NC(=O)OC3CCCC4(C3)OOC3(O4)C4CC5CC(C4)CC3C5)CCCCC2)nn1 (stereo not drawn) [Example 9, dispiro[adamantane-2,2′-[1,3,5]trioxolane-4′,1″-cyclohexane]-3″-yl N-(1-{1-[2-oxo-1-(2,3,5,6-tetrafluorophenoxy)heptan-3-yl]-1H-1,2,3-triazol-4-yl}cyclohexyl)carbamate]

EC50 (IMR90): 6980 nM | EC50 (P. falc DD2): 12.7 nM | EC50 (MB-MDA-231; [2]): 5270 nM | EC50 (HeLa): 3210 nM
Compound: COc1ccc(C[C@H](NC(=O)OC2CCCC3(C2)OOC2(O3)C3CC4CC(C3)CC2C4)C(=O)N[C@H]2[C@@H](O)[C@H](n3cnc4c(N(C)C)ncnc43)O[C@@H]2CO)cc1 (stereo partly drawn) [Example 22, dispiro[adamantane-2,2′-[1,3,5]trioxolane-4′,1″-cyclohexane]-3″-yl N-[(1S)-1-{[(2S,3S,4R,5R)-5-[6-(dimethylamino)-9H-purin-9-yl]-4-hydroxy-2-(hydroxymethyl)oxolan-3-yl]carbamoyl}-2-(4-methoxyphenyl)ethyl]carbamate]

EC50 (IMR90): 1700 nM | EC50 (P. falc DD2): 25.3 nM | EC50 (MB-MDA-231; [2]): 569 nM | EC50 (HeLa): 783 nM
Compound: COc1ccc(C[C@H](N)C(=O)N[C@H]2[C@@H](O)[C@H](n3cnc4c(N(C)C)ncnc43)O[C@@H]2CO)cc1 [Puromycin dihydrochloride, reference compound]

EC50 (MCF-7): > 1000 nM | EC50 (PC-3): > 1000 nM | EC50 (U87MG): > 1000 nM | EC50 (MB-MDA-231; [2]): > 1000 nM | EC50 (P. falc W2; [1]): > 1000 nM | EC50 (HeLa): > 1000 nM
Compound: COc1ccc(-c2cnnn2-c2cc(OC)c(OC)c(OC)c2)cc1NC(=O)OC1CCCC2(COC3(O2)C2CC4CC(C2)CC3C4)C1 (stereo not drawn) [Example 13, dispiro[adamantane-2,2′-[1,3]dioxolane-4′,1″-cyclohexane]-3″-yl N-{2-methoxy-5-[1-(3,4,5-trimethoxyphenyl)-1H-1,2,3-triazol-5-yl]phenyl}carbamate]

EC50 (P. falc W2; [1]): 27 nM
Compound: COC1CCC[C@]2(C1)OOC1(O2)C2CC3CC(C2)CC1C3 (stereo partly drawn) [Example 25]

EC50 (P. falc D10; Plasmodium falciparum): 25.3 nM
Compound: O=C(Oc1ccc2ccc(=O)oc2c1)OC1CCCC2(C1)OOC1(O2)C2CC3CC(C2)CC1C3 (stereo not drawn) [Example 17, dispiro[adamantane-2,2′-[1,3,5]trioxolane-4′,1″-cyclohexane]-3″-yl 2-oxo-2H-chromen-7-yl carbonate]

EC50 (P. falc W2; [1]): 5 nM
Compound: CC(C)(N)CNC(=O)OC1CCCC2(C1)OOC1(O2)C2CC3CC(C2)CC1C3 (stereo not drawn) [Example 23, Dispiro[adamantane-2,2′-[1,3,5]trioxolane-4′,1″-cyclohexane]-3″-yl N-(2-amino-2-methylpropyl)carbamate]

EC50 (P. falc DD2): 11.4 nM
Compound: CN(C)c1cccc2c(S(=O)(=O)NC34CC5CC(C3)C3(OOC6(CCCCC6)O3)C(C5)C4)cccc12 (stereo not drawn) [Example 20, 5-(dimethylamino)-N-{dispiro[adamantane-2,2′-trioxolane-4′,1″-cyclohexane]-7-yl}naphthalene-1-sulfonamide]

EC50 (P. falc HB3): 94 nM | EC50 (P. falc DD2): 188 nM | EC50 (P. falc 3D7): 188 nM
Compound: O=C1C(O)=C(C2CCC3(CC2)OOC2(O3)C3CC4CC(C3)CC2C4)C(=O)c2ccccc21 (stereo not drawn) [Example 10, 2-{dispiro[adamantane-2,2′-[1,3,5]trioxolane-4′,1″-cyclohexane]-4″-yl}-3-hydroxy-1,4-dihydronaphthalene-1,4-dione]
